Data from patent US20250058002A1, “ELECTROCHEMICAL INHIBITION OF REDOX ACTIVE BACTERIA AND RELATED DEVICES, METHODS AND SYSTEMS” (priority 2023, published 2025).
Entries after “also recorded” stand apart in the source; their conditions may differ. Read-outs that look alike come from different tables or passages of the source.

Experiments:
PA14 [1] = experiment: Redox cycles over 7 days and support of survival (Table 4); assay type: cell-based, P. aeruginosa
Excerpt: (§1) Phenazines and other redox active compound in the sense of the disclosure can be further characterized by various electrical properties such as a standard electrode potential E° vs. NHE of −500 mV to 500 mV and other properties such as number of redox cycle over a certain period of time (e.g. number of days) as ability to support survival and susceptibility to reduction by enzymes and/or bacterial strains.

PA14 [2] = experiment: Reduction of redox-active compound by PA14 (Table 4); assay type: cell-based, P. aeruginosa
Excerpt: as §1

[3] = Midpoint potential E1/2 by voltammetry vs Ag/AgCl (3M KCl); assay type: physicochemical; conditions: for E1/2 (vs. Ag/AgCl (3M KCl))/mV: Example 15 table
Experimental: The purified redox-active molecule can be dissolved in aqueous solution at appropriate concentration in the presence of supporting electrolyte and buffer to select the pH of measurement. For example, the redox-active molecule can be dissolved in 10 μM-10 mM concentrations in distilled, deionized water (DDW). The supporting electrolyte can be a salt such as NaCl or KCl at 0.01-0.5 M concentrations, for example, dissolved in DDW. The buffer can be 10 mM ammonium acetate/3-(N-morpholino)propanesulfonic acid at pH 7, or phosphate-buffered saline (PBS) at pH 7.4, or sodium acetate buffer at pH 5, or di-sodium hydrogen phosphate/potassium dihydrogen phosphate at pH 9, or boric acid/citric acid/trisodium phosphate for a wide range of pH values, for example.
Voltammetric methods are then used to characterize the electrochemical behavior of the redox-active molecule in such solution, with a potentiostat such as a Gamry PC4-300, using a three-electrode setup with working electrode (glassy carbon, or platinum, or gold), counter electrode (platinum wire) and reference electrode (Ag/AgCl (3M KCl), or SCE, or NHE; values are reported relative to Ag/AgCl (3M KCl) which has potential +197 mV vs. NHE at 298K).
For example, cyclic voltammetry may be used. In a cyclic voltammetry experiment phenazines will show a peak on the cathodic sweep (denoted Epc) corresponding to the reduction of the redox molecule.
The reverse, anodic sweep will show a peak (denoted Epa) corresponding to the re-oxidation of the redox molecule. If the electrode reaction is diffusion-controlled and reversible, the cathodic and anodic peak currents will be equal in area, and the mid-point between these peaks may be taken as the formal reduction potential of the redox molecule under the experimental conditions used. This value can interchangeably be referred to as the “midpoint potential” or “mid-peak potential”, denoted E1/2.
PYO was purified from aerobic bacterial cultures and was dissolved in 0.1 M KCl aqueous solution buffered with 10 mM ammonium acetate-3-(N-morpholino)propanesulfonic acid (5 mM each, pH 7) to yield a stock solution concentration of 829 μM PYO. Electrochemical measurements were performed with a Gamry PC4-300 potentiostat. A stationary gold disk electrode (BASi) was used as the working electrode, an Ag/AgCl electrode (RE-51, BASi) as the reference, and a straight platinum wire (BASi) was the counter electrode. Scans were performed between 20 and 500 mV/s in the potential range of around E1/2 (+/−300 mV), at 298 K.
As described in en.wikipedia.org/wiki/Nernst_equation, the Nernst equation relates E1/2 measured at pH 7 to the E1/2 at a different pH by:
[formula] • where E1/2 is in V • h is the number of protons transferred in the electrochemical reaction • e is the number of electrons transferred in the electrochemical reaction

[4] = oxidized form; literature values (footnotes a, c, d); cited from earlier work
[5] = from Wang and Newman (2008), cited from earlier work
[6] = vs NHE at pH7; cited from earlier work
[7] = tested on: P. aeruginosa PA14 biofilms; experiment: Anoxic survival (CFU) of electrode-attached wild type biofilms at poised potential with sub-MIC antibiotics; assay type: cell-based, P. aeruginosa UCBPP-PA14; conditions: for decrease in cell survival under PYO-reductive conditions compared with OC: −400 mV vs OC, 1 μg/mL meropenem or 4 μg/mL ciprofloxacin; for effect on wild type biofilms under PYO-reductive conditions (in words): anoxic, sub-MIC antibiotic
Experimental: (§2) Electrochemical reactors and biofilm growth. Double-jacketed electrochemical reactors (Pine Instruments, 250 ml, wide center port 29/26) were used with ITO-coated 0.2 mm thick boro-aluminosilicate glass slides (Delta Technologies, 24×60 mm, Rs=7-10Ω) as working electrodes, freshly sanded graphite rods (Alfa Aesar) as counter electrodes, and Ag/AgCl in 3M KCl reference electrodes (BASi). Silver epoxy (Electron Microscopy Sciences) was used to make electrical connection between insulated wire ([…]) and working electrode and was insulated using 5 Minute® expoxy (Devcon). Working electrodes were assembled within 5 hours of use. Reactors were sterilized by autoclaving without reference or working electrodes, which were sterilized by submerging in 10% bleach for 5 minutes or 30 seconds, respectively, and rinsed in sterile water. Individual mid-log liquid cultures (OD600 0.45-0.55) were used to inoculate sterile reactors containing 140 ml of MM (described above) with 0.1% (vol/vol) for each biological replicate. Antibiotics were not added at this point. Working electrodes were poised at either open circuit, +100 mV, or −400 mV vs. Ag/AgCl (+310 mV and −190 mV vs the standard hydrogen electrode, respectively). Reactors were aerated using an aquarium pump with a 0.2 μm filter (Thermo Scientific) and heated to 31° C. using a circulating water bath (Haake A 25, Thermo Scientific). Fresh medium was exchanged every 24 hours for 5 days. After 5 days of aerobic growth, working electrode-attached biofilms were rinsed in sterile medium to remove planktonic cells and transferred to sterile reactors with fresh MM previously flushed for 2 hours with N2 ultra-high purity gas (NRL supply store). For antibiotic exposure experiments, antibiotics were added to sterile media before flushing with N2. For PYO-addition experiments, 10 μM PYO (Cayman Chemical) was added to in the MM before flushing with N2. Working electrodes were poised to their corresponding potential and biofilms were incubated for an additional 72 hours under N2 flushing at 31° C.
Biofilm harvesting and processing. After 72 hours of incubation under anoxic conditions, electrode-attached biofilms were rinsed in sterile media. The biofilms within the bottom 3.12 cm^2 of each working electrode were scraped off using a cell scraper (Sarstedt) and resuspended in antibiotic-free MM. Serial dilutions were prepared in sterile antibiotic-free MM and plated on antibiotic-free LB. The rest of the electrode-attached biofilms were incubated at room temperature in freshly-made 2 μM TOTO-1 and 10 μM SYTO-60 (Invitrogen) in MM for 15 minutes and rinsed 2× in sterile MM for 15 minutes. Imaging was done with an upright Zeiss LSM 800 microscope with Airyscan and a 40× oil immersion lens. SYTO-60 was excited with a 561 nm; 0.20% laser and emission was recorded from 580-700 nm. TOTO-1 was excited with a 488 nm; 0.20% laser and emission was recorded from 490 to 580 nm.
In order to test the effect of antibiotic in combination with application of a difference in voltage to P. aenuginosa, sub-MICs of gentamicin, meropenem, ciprofloxacin, and colistin were added to anoxic survival reactors set up as described in Examples 1 and 2.

Δphz* biofilms = experiment: Anoxic survival (CFU) of electrode-attached phenazine-deficient biofilms at poised potential; assay type: cell-based, P. aeruginosa UCBPP-PA14; Δphz*; conditions: 4 μg/mL gentamicin, −400 mV, absence of phenazines
Experimental: as §2, with “For PYO-addition experiments, 10 μM PYO (Cayman Chemical) was added to in the MM before flushing with N2. Working electrodes were poised to their corresponding potential and biofilms were incubated for an additional 72 hours under N2 flushing at 31° C.” left out
Biofilm harvesting and processing. […] SYTO-60 was excited with a 561 nm; 0.20% laser and emission was recorded from 580-700 nm. TOTO-1 was excited with a 488 nm; 0.20% laser and emission was recorded from 490 to 580 nm.

[8] = Standard electrode potential E0' vs NHE of exemplary redox-active compounds (Table 4); assay type: physicochemical; conditions: measured in aqueous solution at pH 7 in this study (footnote b)
Excerpt: as §1

Compound: O=C(O)c1cccc2nc3ccccc3nc12 [Phenazine-1-carboxylate (PCA), Phenazine-1-carboxylate]
- Support survival? (PA14 [1]): Yes
- # of Redox cycles over 7 days (PA14 [1]): 22
- Reduction by PA14? (PA14 [2]): Yes
- E1/2 (vs. Ag/AgCl (3M KCl))/mV ([3]; pH 5): −185 mV
- E1/2 (vs. Ag/AgCl (3M KCl))/mV ([3]; pH 6): −257 mV
- E1/2 (vs. Ag/AgCl (3M KCl))/mV ([3]; pH 7): −313 mV
- E0' (vs. NHE) (mV) [4]: −114^a mV
- E1/2 (vs. Ag/AgCl (3M KCl))/mV ([5]; pH 5): −185 mV
- E1/2 (vs. Ag/AgCl (3M KCl))/mV ([5]; pH 6): −257 mV
- E1/2 (vs. Ag/AgCl (3M KCl))/mV ([5]; pH 7): −313 mV

Compound: Ubiquinone [Ubiquinone ox/red]
- Redox potentials E (mV) [6]: +113 mV

Compound: O=C(O)c1cn(C2CC2)c2cc(N3CCNCC3)c(F)cc2c1=O [ciprofloxacin]
- decrease in cell survival under PYO-reductive conditions compared with OC [7]: ~100 ×

Compound: O=C1CCC(=O)N(O)CCC(O)CNC(=O)CCC(=O)N(O)CCC(O)CN1 (stereo not shown) [Alcaligin]
- Redox potentials E (mV) [6]: −588 mV

Compound: colistin
- decrease in CFUs under PYO-oxidative conditions compared with nontreated biofilms ([7]; +100 mV, 10 μg/mL colistin vs no antibiotic): 10 ×
- effect on wild type biofilms under PYO-reductive conditions (in words) ([7]; −400 mV vs Ag/AgCl): did not show an additive effect

Compound: NC1=C(C(=O)O)C(=O)c2ccccc2C1=O [drawing 45]
- E1/2 (vs. Ag/AgCl (3M KCl))/mV ([3]; pH 7): −250 mV

Compound: C[n+]1c2ccccc2nc2c(C(=O)O)cccc21
- E1/2 (vs. Ag/AgCl (3M KCl))/mV ([3]; pH 7): 0 mV

Compound: NAD/NADH
- midpoint potential vs Ag/AgCl ([3]; aqueous environment at pH7): −600 mV
- Redox potentials E (mV) [6]: −320 mV

Compound: O=C1c2ccc(S(=O)(=O)O)cc2C(=O)c2ccc(S(=O)(=O)O)cc21 [2,6-AQDS]
- Support survival? (PA14 [1]): No
- # of Redox cycles over 7 days (PA14 [1]): No cycle
- Reduction by PA14? (PA14 [2]): Yes (very slowly)
- Redox potentials E (mV) [6]: −184 mV
- E0' (vs. NHE) (mV) [4]: −184^d mV

Compound: O=C(O)c1cccc2nc3c(C(=O)O)cccc3nc12
- E1/2 (vs. Ag/AgCl (3M KCl))/mV ([3]; pH 7): 0 mV

Compound: Oc1cccc2nc3ccccc3nc12 [1-Hydroxyphenazine (1-OHPHZ), 1-Hydroxyphenazine]
- Support survival? (PA14 [1]): Yes
- # of Redox cycles over 7 days (PA14 [1]): 14
- Reduction by PA14? (PA14 [2]): Yes
- E1/2 (vs. Ag/AgCl (3M KCl))/mV ([3]; pH 5): −254 mV
- E1/2 (vs. Ag/AgCl (3M KCl))/mV ([3]; pH 6): −323 mV
- E1/2 (vs. Ag/AgCl (3M KCl))/mV ([3]; pH 7): −371 mV
- E1/2 (vs. Ag/AgCl (3M KCl))/mV ([3]; pH 8): −442 mV
- E0' (vs. NHE) (mV) [4]: −174^a mV
- E1/2 (vs. Ag/AgCl (3M KCl))/mV ([5]; pH 5): −254 mV
- E1/2 (vs. Ag/AgCl (3M KCl))/mV ([5]; pH 6): −323 mV
- E1/2 (vs. Ag/AgCl (3M KCl))/mV ([5]; pH 7): −371 mV
- E1/2 (vs. Ag/AgCl (3M KCl))/mV ([5]; pH 8): −442 mV

Compound: gentamicin
- CFU/cm^2 ± SE, −400 mV (PYO-reductive conditions) ([7]; wild type biofilms, 72 h anoxic, −400 mV vs Ag/AgCl, n=3, 4 μg/mL gentamicin, 1 μg/mL meropenem, 4 μg/mL ciprofloxacin): 21.4±10.7 CFU/cm^2
- effect on wild type biofilms under PYO-reductive conditions (in words) ([7]; −400 mV vs Ag/AgCl): almost fully eradicated WT biofilms; also recorded: almost completely eradicated wild type biofilms
- effect on Δphz* biofilms under PYO-reductive conditions (in words) (Δphz* biofilms): did not affect Δphz* biofilms; also recorded: had no effect on the survival of Δphz* biofilms

Compound: NC(=O)c1cccc2nc3ccccc3nc12 [XXV, phenazine-1-carboxamide]
- E1/2 (vs. Ag/AgCl (3M KCl))/mV ([3]; pH 5): −205 mV
- E1/2 (vs. Ag/AgCl (3M KCl))/mV ([3]; pH 6): −278 mV
- E1/2 (vs. Ag/AgCl (3M KCl))/mV ([3]; pH 7): −337 mV
- E1/2 (vs. Ag/AgCl (3M KCl))/mV ([5]; pH 5): −205 mV
- E1/2 (vs. Ag/AgCl (3M KCl))/mV ([5]; pH 6): −278 mV
- E1/2 (vs. Ag/AgCl (3M KCl))/mV ([5]; pH 7): −337 mV

Compound: Menaquinone [Menaquinone ox/red]
- Redox potentials E (mV) [6]: −75 mV

Compound: C[n+]1ccc(-c2cc[n+](C)cc2)cc1 [Paraquat]
- Support survival? (PA14 [1]): No
- # of Redox cycles over 7 days (PA14 [1]): No cycle
- Reduction by PA14? (PA14 [2]): No
- E0' (vs. NHE) (mV) [4]: −446^c mV

Compound: O2/H2O
- Redox potentials E (mV) [6]: +820 mV

Compound: NC1=C(C(=O)O)C(=O)c2ccccc2C1=O [ACNQ ox/red, ACNQ]
- Redox potentials E (mV) [6]: −71 mV

Compound: O=C(O)Cc1cc(O)ccc1O [Homogentisic acid (HMA), Homogentisic acid]
- E0' (vs. NHE) (mV) [8]: +306^b mV
- Support survival? (PA14 [1]): No
- # of Redox cycles over 7 days (PA14 [1]): No cycle

Compound: O=C1c2ccc(S(=O)(=O)O)cc2C(=O)C2C=CC(S(=O)(=O)O)=CC12 (stereo not shown)
- E1/2 (vs. Ag/AgCl (3M KCl))/mV ([3]; pH 7): −381 mV

Compound: C[C@@H](O)[C@H]1C(=O)N2C(C(=O)O)=C(S[C@@H]3CN[C@H](C(=O)N(C)C)C3)[C@H](C)[C@H]12 [meropenem]
- decrease in cell survival under PYO-reductive conditions compared with OC [7]: ~100 ×
